The values that follow come from patent US8389557B2, “Triazole derivatives useful as Axl inhibitors” (Rigel Pharmaceuticals, Inc., priority 2005, dated 2013).

A value given as a limit tells only on which side of the number the result lay.

One assay concerns the target T1, Axl (Homo sapiens, UniProt P30530).
T1 construct: endogenous in cells; host or cells: HeLa cells
T1 sequence (P30530 26-894): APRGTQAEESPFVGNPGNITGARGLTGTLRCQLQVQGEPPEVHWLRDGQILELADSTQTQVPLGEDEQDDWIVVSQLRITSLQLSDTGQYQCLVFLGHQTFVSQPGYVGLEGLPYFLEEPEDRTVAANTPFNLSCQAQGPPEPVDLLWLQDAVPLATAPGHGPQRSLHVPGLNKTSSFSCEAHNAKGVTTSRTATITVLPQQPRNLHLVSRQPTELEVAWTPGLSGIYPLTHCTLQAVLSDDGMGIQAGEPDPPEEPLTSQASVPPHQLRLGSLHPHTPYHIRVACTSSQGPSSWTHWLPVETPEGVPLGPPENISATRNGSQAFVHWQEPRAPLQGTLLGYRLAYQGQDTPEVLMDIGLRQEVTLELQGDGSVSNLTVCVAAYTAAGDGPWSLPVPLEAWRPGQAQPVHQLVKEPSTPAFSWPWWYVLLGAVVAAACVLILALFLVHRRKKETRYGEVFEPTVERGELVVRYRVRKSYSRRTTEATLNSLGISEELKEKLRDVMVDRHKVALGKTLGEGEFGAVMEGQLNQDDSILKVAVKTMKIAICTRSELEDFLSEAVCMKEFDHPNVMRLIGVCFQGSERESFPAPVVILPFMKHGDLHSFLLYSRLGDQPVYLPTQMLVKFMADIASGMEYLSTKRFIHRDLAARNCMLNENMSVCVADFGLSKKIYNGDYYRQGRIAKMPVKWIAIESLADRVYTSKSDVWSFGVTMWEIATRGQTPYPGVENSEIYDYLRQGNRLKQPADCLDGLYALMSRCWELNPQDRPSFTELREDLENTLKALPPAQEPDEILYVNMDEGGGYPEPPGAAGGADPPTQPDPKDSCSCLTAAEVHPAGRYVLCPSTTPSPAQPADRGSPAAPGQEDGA
As to the kind of experiment: Phospho-Akt in-cell Western assay (inhibition of Axl activity). The format is cell-based. The settings on record: Table 2; Hela cells, Axl antibody cross-linking stimulation, phospho-Akt chemiluminescence. In outline: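 HeLa cells on poly-L-lysine, starved 24 h in 0.5% FCS DMEM with Axl/Fc 500 ng/mL, pre-treated with compound 1 h at 37° C. Axl stimulated 5 min by anti-Axl/anti-mouse antibody cross-linking. Fixed cells probed with anti-phospho-Akt and HRP secondary, chemiluminescence read.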
As to `Nc1nc(Nc2ccc3c(c2)OCCO3)n(C(=O)c2ccccc2)n1` [compound 92, 3-amino-5-(1,4-benzodioxan-6-yl)amino-1-phenylcarbonyl-1H-1,2,4-triazole], the IC50 is 1 to 10 µM.

The same assay, now with this note: Table 5; Hela cells, Axl antibody cross-linking stimulation, phospho-Akt chemiluminescence.
In turn, `CCOC(=O)c1cc2cc(Nc3nc(N)n(C(=O)c4cccc(OC(C)C)c4)n3)ccc2o1` [compound 103, 5-amino-3-(2-(ethoxycarbonyl)benzofuran-5-yl)amino-1-(3-(iso-propoxy)phenyl)carbonyl-1H-1,2,4-triazole] gave an IC50 of over 20 µM.

Staying with this assay, now noted: Table 8; Hela cells, Axl antibody cross-linking stimulation, phospho-Akt chemiluminescence.
In the case of `COC(=O)n1nc(N)nc1Nc1ccc2c(c1)OCCO2` [compound 93, 3-amino-5-(1,4-benzodioxan-6-yl)amino-1-methoxycarbonyl-1H-1,2,4-triazole], the half-maximal inhibitory concentration (IC50) is over 20 µM.

The assay is the same for the next values; noted with them: inhibition of Axl activity, Table 1.
`Nc1nc(Nc2ccc3c(c2)OCCO3)nn1C(=O)c1ccccc1Cl` [compound 94, 5-amino-1-(2-(chloro)phenyl)carbonyl-3-(1,4-benzodioxan-6-yl)amino-1H-1,2,4-triazole] returned an IC50 of over 20 µM. Regarding `Nc1nc(Nc2ccc3c(c2)OCCO3)nn1C(=O)c1ccc(Cl)cc1` [compound 95, 5-amino-1-(4-(chloro)phenyl)carbonyl-3-(1,4-benzodioxan-6-yl)amino-1H-1,2,4-triazole], the IC50 lay within 1 to 10 µM. Consider `Cc1cccc(C(=O)n2nc(Nc3ccc4c(c3)OCCO4)nc2N)c1` [compound 96, 5-amino-3-(1,4-benzodioxan-6-yl)amino-1-(3-(methyl)phenyl)carbonyl-1H-1,2,4-triazole], for which the half-inhibitory concentration (IC50) is 1 to 10 µM. Turning to `Cc1ccccc1C(=O)n1nc(Nc2ccc3c(c2)OCCO3)nc1N` [compound 97, 5-amino-3-(1,4-benzodioxan-6-yl)amino-1-(2-(methyl)phenyl)carbonyl-1H-1,2,4-triazole], the IC50 was in the range of 10 to 20 µM. `COc1cccc(C(=O)n2nc(Nc3ccc4c(c3)OCCO4)nc2N)c1` [compound 98, 5-amino-3-(1,4-benzodioxan-6-yl)amino-1-(3-(methoxy)phenyl)carbonyl-1H-1,2,4-triazole] registered an IC50 of 1 to 10 µM.

In turn, `Nc1nc(Nc2ccc3c(c2)OCCO3)nn1C(=O)c1ccccc1F` [compound 99, 5-amino-3-(1,4-benzodioxan-6-yl)amino-1-(2-(fluoro)phenyl)carbonyl-1H-1,2,4-triazole] registered an IC50 of 10 to 20 µM. The same measure, in the same setting: in the case of `Nc1nc(Nc2ccc3c(c2)OCCO3)nn1C(=O)c1ccc(F)cc1` [compound 100, 5-amino-3-(1,4-benzodioxan-6-yl)amino-1-(4-(fluoro)phenyl)carbonyl-1H-1,2,4-triazole] it was over 20 µM; in that of `Nc1nc(Nc2ccc3c(c2)OCCO3)nn1C(=O)c1cccc(Cl)c1` [compound 101, 5-amino-1-(3-(chloro)phenyl)carbonyl-3-(1,4-benzodioxan-6-yl)amino-1H-1,2,4-triazole], 1 to 10 µM.

As to `COc1ccc(C(=O)n2nc(Nc3ccc4c(c3)OCCO4)nc2N)cc1` [compound 102, 5-amino-3-(1,4-benzodioxan-6-yl)amino-1-(4-(methyloxy)phenyl)carbonyl-1H-1,2,4-triazole], the IC50 lay in the range of 1 to 10 µM.

With `Cc1ccc(C(=O)n2nc(Nc3ccc4c(c3)OCCO4)nc2N)cc1` [compound 104, 5-amino-3-(1,4-benzodioxan-6-yl)amino-1-(4-(methyl)phenyl)carbonyl-1H-1,2,4-triazole], the IC50 lay in the range of 1 to 10 µM. `Nc1nc(Nc2ccc3c(c2)OCCO3)nn1C(=O)c1cccc(F)c1` [compound 105, 5-amino-3-(1,4-benzodioxan-6-yl)amino-1-(3-(fluoro)phenyl)carbonyl-1H-1,2,4-triazole] gave an IC50 of over 20 µM.

For `COc1ccccc1C(=O)n1nc(Nc2ccc3c(c2)OCCO3)nc1N` [compound 106, 5-amino-3-(1,4-benzodioxan-6-yl)amino-1-(2-(methyloxy)phenyl)carbonyl-1H-1,2,4-triazole], the IC50 is over 20 µM. As for `CC(=O)Oc1ccc(C(=O)n2nc(Nc3ccc4c(c3)OCCO4)nc2N)cc1` [compound 109, 1-(4-(Acetoxy)phenyl)carbonyl-5-amino-3-(1,4-benzodioxan-6-yl)amino-1H-1,2,4-triazole], the IC50 was 1 to 10 µM. The same measure, in the same setting: the figure for `CC(=O)Oc1cccc(C(=O)n2nc(Nc3ccc4c(c3)OCCO4)nc2N)c1` [compound 110, 1-(3-(Acetoxy)phenyl)carbonyl-5-amino-3-(1,4-benzodioxan-6-yl)amino-1H-1,2,4-triazole] is 1 to 10 µM; for `CC(C)Oc1ccc(Nc2nc(N)n(C(=O)c3ccc(OC(C)C)cc3)n2)cc1` [compound 111, 5-amino-3-[4-(iso-propoxy)phenylamino]-1-(4-(iso-propoxy)phenyl)carbonyl-1H-1,2,4-triazole] it is 1 to 10 µM; for `CC(C)Oc1cccc(C(=O)n2nc(Nc3ccc4c(c3)OCCO4)nc2N)c1` [compound 112, 5-amino-3-(1,4-benzodioxan-6-yl)amino-1-(3-(iso-propoxy)phenyl)carbonyl-1H-1,2,4-triazole] it is 1 to 10 µM. `CC(C)Oc1ccc(C(=O)n2nc(Nc3ccc4c(c3)OCCO4)nc2N)cc1` [compound 113, 5-amino-3-(1,4-benzodioxan-6-yl)amino-1-(4-(iso-propoxy)phenyl)carbonyl-1H-1,2,4-triazole] had an IC50 of 1 to 10 µM.

In turn, `CCOc1ccc(C(=O)n2nc(Nc3ccc4c(c3)OCCO4)nc2N)cc1` [compound 114] gave an IC50 of 1 to 10 µM. As for `CC(C)Oc1ccc(C(=O)n2nc(Nc3cccc(OC4CCCC4)c3)nc2N)cc1` [compound 116, 5-amino-3-[3-(cyclopentoxy)phenylamino]-1-(4-(iso-propoxy)phenyl)carbonyl-1H-1,2,4-triazole], the IC50 is over 20 µM. The compound `COc1ccc(Nc2nc(N)n(C(=O)c3ccc(OC(C)C)cc3)n2)cc1` [compound 117, 5-amino-1-(4-(iso-propoxy)phenyl)carbonyl-3-[4-(methoxy)phenylamino]-1H-1,2,4-triazole] returned an IC50 of 1 to 10 µM. Consider `CCOc1ccc(Nc2nc(N)n(C(=O)c3ccc(OC(C)C)cc3)n2)cc1` [compound 118, 5-amino-3-[4-(ethoxy)phenylamino]-1-(4-(iso-propoxy)phenyl)carbonyl-1H-1,2,4-triazole], for which the IC50 lay in the range of 1 to 10 µM. Still for that read-out and setting: the figure for `CC(=O)Oc1ccccc1C(=O)n1nc(Nc2ccc3c(c2)OCCO3)nc1N` [compound 119, 1-(2-(acetoxy)phenyl)carbonyl-5-amino-3-(1,4-benzodioxan-6-yl)amino-1H-1,2,4-triazole] is 1 to 10 µM; for `Nc1nc(Nc2ccc3c(c2)OCCO3)nn1C(=O)c1ccc(OC2CCCC2)cc1` [compound 120] it is over 20 µM; for `COc1cccc(Nc2nc(N)n(C(=O)c3ccc(OC(C)C)cc3)n2)c1` [compound 121, 5-amino-1-(4-(iso-propoxy)phenyl)carbonyl-3-[3-(methoxy)phenylamino]-1H-1,2,4-triazole] it is 1 to 10 µM. In the case of `CC(C)Oc1ccc(C(=O)n2nc(Nc3cccc(OC(C)C)c3)nc2N)cc1` [compound 122, 5-amino-3-[3-(iso-propoxy)phenylamino]-1-(4-(iso-propoxy)phenyl)carbonyl-1H-1,2,4-triazole], the IC50 fell in the range of 1 to 10 µM. The same measure, in the same setting: the figure for `Cc1ccc(C(=O)n2nc(Nc3ccc(F)cc3)nc2N)cc1` [compound 123, 5-amino-3-[4-(fluoro)phenylamino]-1-(4-(methyl)phenyl)carbonyl-1H-1,2,4-triazole] is 10 to 20 µM. The same measure, in the same setting: the figure for `Cc1ccc(C(=O)n2nc(Nc3cccc(F)c3)nc2N)cc1` [compound 124, 5-amino-3-[3-(fluoro)phenylamino]-1-(4-(methyl)phenyl)carbonyl-1H-1,2,4-triazole] is 10 to 20 µM; for `CCOc1cccc(Nc2nc(N)n(C(=O)c3ccc(OC(C)C)cc3)n2)c1` [compound 125, 5-amino-3-[3-(ethoxy)phenylamino]-1-(4-(iso-propoxy)phenyl)carbonyl-1H-1,2,4-triazole] it is 1 to 10 µM.

The same assay, now with this note: inhibition of Axl activity, phospho-Akt in-cell Western assay; Table 1.
`CN(C)CCOc1ccc(Nc2nc(N)n(C(=O)c3ccc(N(C)C)cc3)n2)cc1` [compound 87, 5-amino-3-[4-[2-(dimethylamino)ethoxy]phenylamino]-1-(4-(dimethylamino)phenyl)carbonyl-1H-1,2,4-triazole] had an IC50 of under 1 µM. Still for that read-out and setting: the figure for `Cc1ccc(C(=O)n2nc(Nc3ccc(OCCCN(C)C)cc3)nc2N)cc1` [compound 91, 5-amino-3-[4-[3-(dimethylamino)propoxy]phenylamino]-1-(4-(methyl)phenyl)carbonyl-1H-1,2,4-triazole] is 1 to 10 µM.
